# Entries after “also recorded” stand apart in the source; their conditions may differ.
# Test system: LPS-induced acute lung injury (ALI)
# Assay: LPS-induced mice acute lung injury (ALI) model, BAL fluid cell counts and lung histology at 24 hours
# Format: in vivo, Male C57BL/6 mice
# Method: The compound of formula (F-I) was evaluated for the therapeutic efficacy in the LPS-induced mice ALI model. In this study, animals were anesthetized with 2.5% isoflurane inhalation. LPS was used to create ALI at the dose of 3 mg/kg in 50 μl via a direct intratracheal injection. For sham animals, an equal volume of saline solution was directly injected into the trachea. After LPS injection, the test article compound of formula (F-I) was dosed at different single oral doses and different therapeutic time points. Male C57BL/6 mice (n=100) were used in this study. DEX was used as positive control. Animals were randomly divided into 10 groups and dose regimens are described in Table 1. At 24 hours after injection, all animals were euthanized and processed for bronchoalveolar lavage (BAL) fluid collection from bilateral lungs and formalin-fixation of lung tissue pathology studies. [table]
# [1] = lung histology at 24 hours of ALI, treatment at 4 or 8 hours of ALI, all dosages, vs model
# [2] = single oral dose at 4 or 8 hours of ALI (F-I 1, 3, 10 mg/kg; DEX 3 mg/kg), BAL at 24 hours, vs Vehicle group
structure (smiles),measurement,setting,value
Cc1cccc(COc2ccc(Sc3ccoc3C3NC(=O)NC3=O)cc2)c1 (stereo not drawn) [compound of formula (F-I)],therapeutic efficacy at lower doses,1 mg/kg via oral gavage at 4 or 8 hours of ALI,significant therapeutic efficacy
same,overall efficacy at 10 mg/kg,"10 mg/kg at 4 hours and 8 hours of ALI, conclusion",better
same,dose dependence of lung tissue protection,"1, 3, 10 mg/kg, dosing at 4 or 8 hours of ALI, histology",no clear dose-dependent lung tissue protection
same,"overall therapeutic efficacy, dosing at 8 hours vs 4 hours of ALI","conclusion, dosing at 8 hours compared with 4 hours of ALI",slightly better
same,"efficacy in BAL fluid analysis, comparison of doses",dose of 10 mg/kg compared with 1 and 3 mg/kg,best efficacy
same,alveolar damages (lung histology),[1],reduction
same,bronchial and arteriole damages (lung histology),[1],reduction
same,total lung injury (lung histology),[1],reduction
same,neutrophils in BAL fluid,[2],clear trend of dose-dependent reduction; also recorded: reduced
same,total inflammatory cells in BAL fluid,[2],clear trend of dose-dependent reduction; also recorded: reduced
same,"effect on BAL fluid cells, treatment at 8 hours vs 4 hours of ALI",treatment at 8 hours of ALI compared to 4 hours of ALI,better effect than that at 4 hours of ALI
same,"lung histology efficacy, treatment at 8 hours vs 4 hours of ALI","treatment at 8 hours of ALI compared to 4 hours of ALI, histology at 24 hours",better efficacy

# — US20240269116A1, “USE OF MMP INHIBITORS FOR TREATING ACUTE RESPIRATORY DISTRESS SYNDROME” (Foresee Pharmaceuticals Co., Ltd., priority 2021, published 2024)
